Data published in paper PMC5578959, “Selective LRRK2 kinase inhibition reduces phosphorylation of endogenous Rab10 and Rab12 in human peripheral mononuclear blood cells” (Scientific Reports, 2017).
Values joined by “and” are separate entries in the source; they are usually repeats but may differ in a detail not shown here. Equal values may be shown once.

Key:
Assay in all cases: KiNativ profiling in human PBMCs
Assay type in all cases: binding
[1] = test system: T1, CaMK1a; details: Lys1
T1 construct: purchased ActivX Technologies (KiNativ)
Description: (§1) Compounds were shipped to ActivX Technologies (San Diego, US) where LRRK2 target engagement and broad kinase profiling was performed using KiNativ™ procedures. Live cell treatment of human peripheral blood mononuclear cells (PBMCs) at two compound concentrations (1 µM and 0.1 µM) were used to evaluate and compare in vitro target engagement and kinase selectivity, respectively (see Supplementary File 1).

[2] = test system: T2, RSK1 domain1
T2 construct: RSK1 domain1; purchased ActivX Technologies (KiNativ)
Description: as §1

[3] = test system: T3, QSK; details: Lys1
T3 construct: purchased ActivX Technologies (KiNativ)
Description: as §1

[4] = test system: T4, LRRK2; details: Lys2
T4 construct: purchased ActivX Technologies (KiNativ)
Description: as §1

[5] = test system: T5, TAO2; details: Lys2
T5 construct: purchased ActivX Technologies (KiNativ)
Description: as §1

[6] = test system: T6, NuaK2; details: Lys1
T6 construct: purchased ActivX Technologies (KiNativ)
Description: as §1

[7] = test system: T7, KSR1; details: 0.1µM; Activation Loop
T7 construct: purchased ActivX Technologies (KiNativ)
Description: as §1

[8] = test system: T8, NEK7; details: Lys1
T8 construct: purchased ActivX Technologies (KiNativ)
Description: as §1

[9] = test system: T9, BARK1; details: Lys2
T9 construct: purchased ActivX Technologies (KiNativ)
Description: as §1

[10] = test system: T10, MST2; details: 1µM; Lys1
T10 construct: purchased ActivX Technologies (KiNativ)
Description: as §1

[11] = test system: ZC1/HGK,ZC2/TNIK,ZC3/MINK; details: Lys2
Description: as §1

[12] = test system: T11, STLK5
T11 construct: purchased ActivX Technologies (KiNativ)
Description: as §1

[13] = test system: MST4,YSK1; details: Lys2
Description: as §1

[14] = test system: T12, IRE1; details: Lys2
T12 construct: purchased ActivX Technologies (KiNativ)
Description: as §1

[15] = test system: T13, LKB1; details: Lys2
T13 construct: purchased ActivX Technologies (KiNativ)
Description: as §1

[16] = test system: T14, ACK; details: Lys1
T14 construct: purchased ActivX Technologies (KiNativ)
Description: as §1

[17] = test system: T15, MAP2K6
T15 construct: purchased ActivX Technologies (KiNativ)
Description: as §1

[18] = test system: T16, MST3; details: Lys2
T16 construct: purchased ActivX Technologies (KiNativ)
Description: as §1

[19] = test system: T17, BRAF; details: Lys2
T17 construct: purchased ActivX Technologies (KiNativ)
Description: as §1

[20] = test system: T18, LYN
T18 construct: purchased ActivX Technologies (KiNativ)
Description: as §1

[21] = test system: T19, NDR2
T19 construct: purchased ActivX Technologies (KiNativ)
Description: as §1

[22] = test system: T20, Erk1; details: Lys2
T20 construct: purchased ActivX Technologies (KiNativ)
Description: as §1

[23] = test system: T21, AKT1; details: ATP Loop
T21 construct: purchased ActivX Technologies (KiNativ)
Description: as §1

[24] = test system: T22, eEF2K; details: ATP
T22 construct: purchased ActivX Technologies (KiNativ)
Description: as §1

[25] = test system: T23, MAP2K4; details: 1µM; Lys2
T23 construct: purchased ActivX Technologies (KiNativ)
Description: as §1

[26] = test system: T24, CDC2; details: Lys2
T24 construct: purchased ActivX Technologies (KiNativ)
Description: as §1

[27] = test system: T25, HCK; details: Activation Loop
T25 construct: purchased ActivX Technologies (KiNativ)
Description: as §1

[28] = test system: T26, PI4KB; details: ATP
T26 construct: purchased ActivX Technologies (KiNativ)
Description: as §1

[29] = test system: CDK11,CDK8; details: Lys2
Description: as §1

[30] = test system: Wnk1,Wnk2,Wnk4; details: Activation Loop
Description: as §1

[31] = test system: T27, CHK2
T27 construct: purchased ActivX Technologies (KiNativ)
Description: as §1

[32] = test system: T28, MAP3K6; details: Lys2
T28 construct: purchased ActivX Technologies (KiNativ)
Description: as §1

[33] = test system: NEK6,NEK7; details: Lys2
Description: as §1

[34] = test system: MAP3K2,MAP3K3; details: Lys2
Description: as §1

[35] = test system: T29, MSK2 domain1; details: Lys2
T29 construct: MSK2 domain1; purchased ActivX Technologies (KiNativ)
Description: as §1

[36] = test system: T30, ULK3
T30 construct: purchased ActivX Technologies (KiNativ)
Description: as §1

Cc1cccc(-c2cc(Nc3ccn(C)n3)nc3[nH]cc(C#N)c23)c1 [Lu AF58786] was tested, and the Inhibition ([1]; 0.1µM) was 11.0%, the Inhibition ([1]; 1µM) was -3.0% and the Inhibition ([2]; 0.1µM, Activation Loop) was 8.7%. It also gave an Inhibition ([2]; 0.1µM, Lys2) of -0.654%, an Inhibition ([2]; 1µM, Activation Loop) of 18.4% and an Inhibition ([2]; 1µM, Lys2) of 12.8%. The Inhibition ([3]; 0.1µM) was 15.6%, the Inhibition ([3]; 1µM) was 28.4% and the Inhibition ([4]; 0.1 µM) was 83% and 83.4%. For the same compound, the Inhibition ([4]; 1 µM) was 93% and 93.4%, the Inhibition ([5]; 0.1µM) was 17.3% and the Inhibition ([5]; 1µM) was 18.3%. The Inhibition ([6]; 0.1µM) was 20.0%, the Inhibition ([6]; 1µM) was 38.2% and the Inhibition [7] was -19.0%. It also gave an Inhibition ([8]; 0.1µM) of -17.5%, an Inhibition ([8]; 1µM) of 16.7% and an Inhibition ([9]; 0.1µM) of 12.1%. The Inhibition ([9]; 1µM) was 6.3%, the Inhibition [10] was 11.8% and the Inhibition ([11]; 0.1µM) was 6.6%. For the same compound, the Inhibition ([11]; 1µM) was -3.7%, the Inhibition ([12]; 0.1µM, Activation Loop) was 3.4% and the Inhibition ([12]; 0.1µM, Lys2) was 16.0%. For the same compound, the Inhibition ([12]; 1µM, Activation Loop) was -4.3%, the Inhibition ([12]; 1µM, Lys2) was 19.2% and the Inhibition ([13]; 0.1µM) was 22.5%. The Inhibition ([13]; 1µM) was 4.6%, the Inhibition ([14]; 0.1µM) was -7.8% and the Inhibition ([14]; 1µM) was -11.6%. It also gave an Inhibition ([15]; 0.1µM) of 6.1%, an Inhibition ([15]; 1µM) of 3.9% and an Inhibition ([16]; 0.1µM) of -14.9%. It also gave an Inhibition ([16]; 1µM) of -10.3%, an Inhibition ([17]; 0.1µM, Lys1) of 2.0% and an Inhibition ([17]; 0.1µM, Lys2) of 5.6%. For the same compound, the Inhibition ([17]; 1µM, Lys1) was 2.8%, the Inhibition ([17]; 1µM, Lys2) was -7.5% and the Inhibition ([18]; 0.1µM) was 12.8%. It also gave an Inhibition ([18]; 1µM) of 1.2%, an Inhibition ([19]; 0.1µM) of 6.1% and an Inhibition ([19]; 1µM) of -13.8%. For the same compound, the Inhibition ([20]; 0.1µM, Activation Loop) was -18.7%, the Inhibition ([20]; 0.1µM, Lys1) was -21.4% and the Inhibition ([20]; 1µM, Activation Loop) was 1.0%. It also gave an Inhibition ([20]; 1µM, Lys1) of -4.5%, an Inhibition ([21]; 0.1µM, Lys1) of -14.6% and an Inhibition ([21]; 0.1µM, Lys2) of 10.7%. For the same compound, the Inhibition ([21]; 1µM, Lys1) was -18.5%, the Inhibition ([21]; 1µM, Lys2) was 1.3% and the Inhibition ([22]; 0.1µM) was 2.3%. It also gave an Inhibition ([22]; 1µM) of 1.5%, an Inhibition ([23]; 0.1µM) of 7.0% and an Inhibition ([23]; 1µM) of -7.5%. For the same compound, the Inhibition ([24]; 0.1µM) was 12.2%, the Inhibition ([24]; 1µM) was 6.3% and the Inhibition [25] was -0.124%. The Inhibition ([26]; 0.1 µM, DLKPQNLLIDDK) was -19.4%, the Inhibition ([26]; 0.1 µM, DLKPQNLLIDDKGTIK) was 5.9% and the Inhibition ([26]; 1 µM, DLKPQNLLIDDK) was -27.3%. For the same compound, the Inhibition ([26]; 1 µM, DLKPQNLLIDDKGTIK) was 6.8%, the Inhibition ([27]; 0.1µM) was -0.451% and the Inhibition ([27]; 1µM) was -12.8%. It also gave an Inhibition ([28]; 0.1µM) of 15.3%, an Inhibition ([28]; 1µM) of 6.2% and an Inhibition ([29]; 0.1µM) of -20.3%. The Inhibition ([29]; 1µM) was -2.0%, the Inhibition ([30]; 0.1µM) was 0.9% and the Inhibition ([30]; 1µM) was -6.6%. It also gave an Inhibition ([31]; 0.1µM, Lys1) of 15.1%, an Inhibition ([31]; 0.1µM, Lys2) of 2.3% and an Inhibition ([31]; 1µM, Lys1) of 2.8%. For the same compound, the Inhibition ([31]; 1µM, Lys2) was -16.2%, the Inhibition ([32]; 0.1µM) was 31.4% and the Inhibition ([32]; 1µM) was 4.4%. It also gave an Inhibition ([33]; 0.1µM) of 15.4%, an Inhibition ([33]; 1µM) of -5.8% and an Inhibition ([34]; 0.1µM) of 6.3%. The Inhibition ([34]; 1µM) was 0.325%, the Inhibition ([35]; 0.1µM) was 28.3% and the Inhibition ([35]; 1µM) was 19.0%. It also gave an Inhibition ([36]; 0.1µM, Lys1) of 3.2%, an Inhibition ([36]; 0.1µM, Lys2) of -16.6% and an Inhibition ([36]; 1µM, Lys1) of 2.2%. The Inhibition ([36]; 1µM, Lys2) was -15.6%.
